The text below walks through data of US9737582B2, “Method for improving memory of a subject using a composition comprising Cistanche and Ginkgo extracts” (Access Business Group International LLC, priority 2014, dated 2017).

Holding throughout (format): cell-based, murine
The subject of assay [1] is hippocampal network morphology. As to the kind of experiment: Immuno-histochemical analysis of recorded cultures, semi-automatic quantitative image analysis. The settings on record: chronic 4-28 days in vitro; 30 μg/ml Cistanche, 300 nM Donepezil. The text has this:
FIG. 5A is an example image associated with semi-automatic quantification of neurons/image, neurites/image, synapses/image, and synapse/neurite ratio. The image depicts color-merge of synapse (green), neurites (red), nuclei (blue), bar=50 μm.
FIG. 5B is an example image corresponding to synapse channel: color-inverted and analyzed for synapse particles (red labeled after automatic threshold, particle separation and size filter).
FIG. 9 illustrates examples of the study directed at immuno-histochemical analysis. Recorded cultures are further analyzed by immunocytochemistry, fluorescence microscopy and semi-automatic quantitative image analysis. Images are quantified per image for: cell number, neuronal number, neurite number, synapse number, % neurons, neurites per neuron, and synapses per neuron. […]
Recorded cultures were further analyzed by immunocytochemistry, fluorescent microscopy and quantitative image analysis for morphological findings. Semi-automatic quantification (mean±SEM, student's t-test: *p≦0.05; n=3 with 10-20 images each.)
FIG. 21 are images associated with semi-automatic quantification of total cells/field, percentage of neurons, neuritic density, and synaptic number/field. […] The rightmost images correspond to synapse channel: color inverted and analyzed for synapse particles.

Assay [2] relates to hippocampal cultures. As to the kind of experiment: Chronic treatment of hippocampal cultures on MEA neurochips, spontaneous network activity. The settings on record: chronic treatment 4-28 days in vitro; 30 μg/ml Cistanche, 300 nM Donepezil. From the text: Microelectrode array (MEA) neurochips were utilized to analyze various examples. Specifically, use of MEA neurochips enabled stimulation and recording of bioelectricity with high spatial and temporal resolution, to glean neuroactivity of the Cistanche and Ginkgo extracts, alone and in combination, and with neuronal growth factors.
MEA neurochips are available from NeuroProof GmbH of Rostock, Germany. The electrophysiological properties of compounds can be evaluated using their ability for induction of activity changes in neuronal networks grown on MEA neurochips. Routine monitoring of internal dynamics of mammalian neuronal networks is possible. […]
FIG. 8 illustrates examples of the study to assess chronic effects of Cistanche tubulosa extract on maturation of a neuronal network. […] At 28 days after repeated dose chronic treatment, spontaneous activity was measured, followed by recording of activity to acute NGF concentration-response curve. […]
Multichannel recording delivered single neuron spike data and spike identification and separation were accomplished with a template-matching algorithm in real time, to allow the extracellular recording of action potentials from 256 neurons simultaneously. The action potentials or “spikes” were recorded in spike trains and clustered in bursts, which can be quantitatively described via direct spike train analysis. […]

The subject of assay [3] is hippocampal cultures. The experiment in a line: Acute NGF concentration-response on chronically treated hippocampal cultures, MEA neurochips. The settings on record: acute mNGF 3 ng/ml to 1 μg/ml. The method, then:
FIG. 8 illustrates examples of the study to assess chronic effects of Cistanche tubulosa extract on maturation of a neuronal network. Hippocampal cultures on MEA neurochips were treated with 30 μg/ml Cistanche, 300 nM Donepezil, or a dimethyl sulfoxide (“DMSO”) vehicle control. At 28 days after repeated dose chronic treatment, spontaneous activity was measured, followed by recording of activity to acute NGF concentration-response curve.
FIG. 19A is a first portion of a heat map and FIG. 19B is a second portion of the heat map. The heat map illustrates concentration dependent effects of acute mouse nerve growth factor (“mNGF”) on network activity of chronically treated hippocampal cultures with the mixtures or components described above for FIG. 18.
The heat map illustrates significant changes on the 60 most representative parameters for each mNGF concentration, from 3 ng/ml to 1 μg/ml. The color code changes in activity parameters according to the percent changes (100:no change), with yellow/red=an increase and green/blue=a decrease.

In the case of `COc1cc2c(cc1OC)C(=O)C(CC1CCN(Cc3ccccc3)CC1)C2` (stereo not shown) [Donepezil], the global synapse number entry in assay [1] is on record as “increase”. Also, the spontaneous network activity result in the assay on hippocampal cultures [2] is “enhanced the spontaneous network activity”. Also, the “effect of chronic treatment on the acute NGF response” value in the assay with hippocampal cultures [3] (chronic 4-28 days in vitro, 30 μg/ml Cistanche, 300 nM Donepezil, mixture at 10 and 30 μg/ml) was “compensated the inhibitory acute NGF response”.

B1: NGF: mouse nerve growth factor applied acutely to cultures (protein, UniProt P01139 122-241, looked up)
Beta-nerve growth factor: SSTHPVFHMGEFSVCDSVSVWVGDKTTATDIKGKEVTVLAEVNINNSVFRQYFFETKCRASNPVESGCRGIDSKHWNSYCTTTHTFVKALTTDEKQAAWRFIRIDTACVCVLSRKATRRG
modifications: Beta-nerve growth factor
notes: mouse nerve growth factor applied acutely to cultures
As to B1, the “effect of acute NGF alone on general activity” value in the assay on hippocampal cultures [3] (vehicle-treated cultures) is reported as “inhibition of general activity”.
